Reference: patent publication US8697095B1, “Inhibition of replication of oncogenic herpesviruses” (priority 2004, dated 2014)
Where “and” joins values, the source holds several entries; their conditions need not be identical. Equal entries are not always repeated. Entries after “also recorded” stand apart in the source; their conditions may differ.

Experiments:
HSV-1 [1] = experiment: HSV-1 replication in OMK cells; type: cell-based
Protocol: Control cultures were treated with […]. IC50 was determined by measuring virus titers in THC treated and control samples after one cycle of freeze-thawing of the cultures. Additional controls were uninfected cells grown in the presence of THC or DMSO. THC or DMSO were present throughout the experiment.
The inventors next examined whether or not the THC inhibitory effect can be observed against other herpesviruses and tested whether drug treatment suppresses the replication of the alpha herpesvirus, HSV-1. […] . […] HSV-1 replication in OMK was also unaffected by THC in an analogous experiment (not shown).

HVS = experiment: Cytopathic effect and virus yield reduction, HVS in owl monkey kidney cells; type: cell-based, herpesvirus saimiri (HVS)
HSV-1 [2] = experiment: HSV-1 plaque formation and virus yield in NIH3T12 cells; type: cell-based
KSHV ORF 50 promoter = experiment: Dual luciferase promoter assay, KSHV ORF 50 promoter in BCBL-1 cells; type: cell-based; settings: 5 μg/ml, 48 hours
Excerpt: (§1) FIG. 3 is a table showing the relative luciferase activity of extracts from control and THC treated cells. […] cells co-transfected with MHV 68 ORF 50 plus CMV control (top rows). BCBL-1 cells were co-transfected with the KSHV ORF 50 plus CMV control (bottom rows). Data represents averages from three independent co-transfection experiments.
(§2) A DNA fragment corresponding to the promoter region upstream of the mapped mRNAs was cloned into the basic firefly luciferase vector (Promega, Inc, Madison Wis.) to evaluate the effect of THC on the KSHV ORF 50 promoter. To assay the effect of THC on the MHV 68 ORF 50 gene, a DNA fragment containing the 0.4 kb full length ORF 50 promoter (nucleotides 66242-66652) cloned upstream of the firefly luciferase was utilized. About 5 μg KSHV ORF 50 firefly plasmid DNA was transfected into BCBL-1 cells. About 5 μg MHV 68 ORF 50 firefly plasmid DNA was transfected Into NIH312 cells. Control renilla luciferase expression vector (under the control of the CMV immediate early promoter) was included and co-transfected along with the ORF 50 reporter constructs. […] Luciferase activities were determined using a dual luminometer.
(§3) To evaluate the effect of THC on the MHV 68 and KSHV ORF 50 promoters, luciferase reporter assays were performed. […] Luciferase activities were determined using a dual luminometer. […]

MHV 68 = experiment: Cytopathic effect and virus yield reduction, MHV 68 in NIH3T12 cells; type: cell-based, murine gamma herpesvirus 68 (MHV-68)
KSHV [3] = experiment: Gardella gel antiviral assay, KSHV DNA replication in BCBL-1 cells
[4] = tested on: CMV immediate early promoter; experiment: Dual luciferase promoter assay, control CMV promoter in NIH3T12 cells; type: cell-based; settings: 5 μg/ml, 48 hours
Excerpt: as §1, §2, §3

[5] = tested on: Owl monkey kidney (OMK) cells; experiment: Cytotoxicity in owl monkey kidney (OMK) cells; type: cell-based; settings: analogous experiment
Excerpt: (§4) Because the observed effects might be due to a non-specific toxic effect of THC, the inventors tested whether THC alters cell division or morphology in NIH3T12 and owl monkey kidney (OMK) cells. […].

NIH3T12 cells [6] = experiment: Cytotoxicity (monolayer growth and morphology) in NIH3T12 cells; type: cell-based, Murine; settings: 0.6-10 μg/ml, 2 days
Excerpt: as §4

EBV = experiment: Gardella gel antiviral assay, TPA-induced EBV replication in P3HR1 cells; type: cell-based, Epstein-Barr virus (EBV); settings: P3HR1 cells with TPA
[7] = tested on: CMV immediate early promoter; experiment: Dual luciferase promoter assay, control CMV promoter in BCBL-1 cells; type: cell-based; settings: 5 μg/ml
Excerpt: as §1, §2, §3

NIH3T12 cells [8] = experiment: Cell division inhibition (cell counts) in NIH3T12 cells; type: cell-based, Murine; settings: Mus musculus, 48 h, NIH3T12, two days, read-out: 50% cell division inhibitory concentration
Protocol: (§5) The effect of higher THC concentrations on cell division was also determined. Exponentially growing BCBL-1 or NIH12 cells were cultured for two days in the presence of various concentrations of THC or DMSO and cell counts were determined. The 50% cell division inhibitory concentration of THC for BCBL-1 cells was around 33 μM. NIH3T12 cells were less sensitive and the 50% inhibitory concentration was around 99 μM (not shown).

BCBL-1 cells = experiment: Cell division inhibition (cell counts) in BCBL-1 cells; type: cell-based; settings: BCBL1, 48 h, BCBL-1, two days, read-out: 50% cell division inhibitory concentration
Protocol: as §5

KSHV, MHV 68 = settings: FIG. 4 comparison; cited from earlier work
[9] = cited from earlier work
KSHV [10] = tested on: KSHV
Protocol: BCBL-1 cells were incubated with or without THC and in the presence of these compounds.

With `CCCCCc1cc(O)c2c(c1)OC(C)(C)[C@@H]1CCC(C)=C[C@@H]21` [THC, Δ-9 Tetrahydrocannabinol] the HSV-1 replication (HSV-1 [1]) was “unaffected”, the “HVS virus yield reduction / replication” value (HVS) was “strongly inhibited” and the HSV-1 plaque development (HSV-1 [2]; 0.6-10 μg/ml, 3 days, NIH3T12) was “indistinguishable from those in control cultures”. For the same compound, the “Effect on HSV-1 virus yield” value (HSV-1 [2]; NIH3T12, multiplicity of 2, 24 hours) was “no significant inhibitory effect”, the “Inhibition of KSHV ORF 50-driven luciferase activity” value (KSHV ORF 50 promoter) was ~4 fold and the “Cytopathic effect of MHV 68, appearance of infected cells” value (MHV 68; 0.6 μg/ml, 48 hours, NIH3T12) was “intermediate between uninfected cells and the full cytopathic effect”. The “Cytopathic effect of MHV 68, appearance of infected cells” value (MHV 68; 1.25 μg/ml or higher, 48 hours, NIH3T12) was “indistinguishable from uninfected control cells”, the “Inhibition of virus yield” value (MHV 68; 10 μg/ml, 48 hours, NIH3T12) was “over 300 fold” and the “Potency and selectivity against MHV 68 compared with acyclovir, ganciclovir and foscarnet” value (MHV 68; FIG. 4 comparison) was “even more potent and selective”. For the same compound, the IC50 (MHV 68; Gammaherpesvirinae sp., in Mus musculus, 48 h, read-out: 50% inhibitory concentration (IC50), MHV 68 virus yield) was ~0.6 µg/mL and ~1.9 µM, the “Effect on MHV 68 virus yield / replication” value (MHV 68; NIH3T12 cells) was “inhibits MHV 68 virus yield; also recorded: highly significantly inhibited; also recorded: strongly inhibited” and the “Potency and selectivity against KSHV compared with known antiviral drugs” value (KSHV [3]; FIG. 4 comparison) was “potent and selective antiviral agent”. The IC50 (KSHV [3]; Human gammaherpesvirus 8, BCBL1, 72 h, read-out: 50% inhibitory concentration (IC50), KSHV linear DNA) was 1 µg/mL and ~3.3 µM, the “Reduction of control CMV promoter activity” value [4] was 35% and the Toxicity [5] was “no toxicity”. The “Cell growth and morphology” value (NIH3T12 cells [6]) was “no altered morphology”, the “Effect on EBV linear DNA synthesis” value (EBV; autoradiogram) was “inhibited EBV linear DNA synthesis” and the IC50 (EBV; human gammaherpesvirus 4, P3HR-1, read-out: 50% inhibitory concentration (IC50), EBV linear DNA synthesis) was ~0.9 µg/mL and ~3.1 µM. The “Effect on co-transfected CMV promoter” value [7] was “slightly stimulated”, the IC50 (NIH3T12 cells [8]) was ~99 µM and the IC50 (BCBL-1 cells) was ~33 µM.
In the case of `Nc1ccn(C[C@@H](CO)OCP(=O)(O)O)c(=O)n1` [Cidofovir], the “Relative potency in in vitro antiviral experiments” value (KSHV, MHV 68) is listed as “most potent” and the “Side effects in humans” value [9] is listed as “toxic to the kidney”.
For SR144528, the “Effect on spontaneous KSHV reactivation” value (KSHV [10]; BCBL-1, without THC) was “no effect”, the “Reversal of inhibition of linear DNA synthesis by THC” value (KSHV [10]; both antagonists, 1.25 μg/ml THC) was “reversed” and the “Reversal of THC inhibition of KSHV DNA synthesis” value (KSHV [10]; single receptor antagonist) was “not reversed”.
